Results published in US9809583B2 (priority 2014, dated 2017).
Where a name gives a salt, the structure may show the parent alone. Read-outs that look alike come from different tables or passages of the source.

Target: androgen receptor (hAR) (Homo sapiens (Human), UniProt P10275)
Assay: Test of transcriptional activity (hAR / ARE-Luc dual-luciferase assay in CHO cells)
Assay type: cell-based
Settings: CHO cells with hAR and ARE-Luc, 24 hours, 10 nM DHT = 100%
Procedure: In order to examine the transcriptional activity of the agonists of the present invention, the following in-vitro experiment was performed. CHO (Chinese hamster ovary) cell line (ATCC, #CCL-61) was seeded in a 96-well plate at a density of 1.5×10^4 cells/well, and cultured for 24 hours. Then, a plasmid hAR and plasmid ARE-Luc-mixed medium was added thereto. The transfected cell line was treated with 0.1˜10,000 nM of SARM derivatives, and then allowed to react for 24 hours.

[1] = read-out: EC50 [nM] (mean ± SE)

androgen receptor (hAR), sequence (P10275 whole entry): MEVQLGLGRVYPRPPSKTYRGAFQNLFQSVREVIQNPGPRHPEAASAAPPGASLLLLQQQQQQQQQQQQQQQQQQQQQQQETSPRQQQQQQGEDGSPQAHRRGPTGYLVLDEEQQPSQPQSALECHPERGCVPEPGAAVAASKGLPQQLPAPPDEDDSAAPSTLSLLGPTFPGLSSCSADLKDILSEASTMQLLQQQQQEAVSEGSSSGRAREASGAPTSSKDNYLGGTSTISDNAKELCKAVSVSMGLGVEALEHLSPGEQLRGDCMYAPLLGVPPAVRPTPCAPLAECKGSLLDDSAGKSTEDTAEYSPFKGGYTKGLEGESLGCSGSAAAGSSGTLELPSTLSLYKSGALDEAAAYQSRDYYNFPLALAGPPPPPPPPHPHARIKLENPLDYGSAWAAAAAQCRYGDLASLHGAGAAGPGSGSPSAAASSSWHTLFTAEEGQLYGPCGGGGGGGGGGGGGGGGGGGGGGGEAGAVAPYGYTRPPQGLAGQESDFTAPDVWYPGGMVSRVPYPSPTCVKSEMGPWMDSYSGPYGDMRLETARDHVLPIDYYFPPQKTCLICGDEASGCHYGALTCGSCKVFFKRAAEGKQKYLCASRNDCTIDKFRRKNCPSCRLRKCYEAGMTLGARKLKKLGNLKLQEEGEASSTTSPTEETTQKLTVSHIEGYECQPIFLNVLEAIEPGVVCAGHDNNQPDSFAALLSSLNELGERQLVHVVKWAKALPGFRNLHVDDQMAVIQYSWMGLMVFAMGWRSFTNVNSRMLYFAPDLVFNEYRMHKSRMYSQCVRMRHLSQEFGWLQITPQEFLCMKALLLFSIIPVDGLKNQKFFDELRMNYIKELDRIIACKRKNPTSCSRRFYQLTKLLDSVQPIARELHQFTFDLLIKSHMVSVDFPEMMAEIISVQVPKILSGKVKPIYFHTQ

| Compound | EC50 (EC50 [nM] (mean ± SE)) | EC50 [1] [nM] |
| --- | --- | --- |
| N#Cc1ccc(N2C[C@@H](C(=O)N3CCN(C#N)CC3)O[C@@H]2C(F)(F)F)cc1C(F)(F)F [Example 174, 4-((2R,5S)-3-(4-cyano-3-(trifluoromethyl)phenyl)-2-(trifluoromethyl)oxazolidine-5-carbonyl)piperazine-1-carbonitrile] | 139 | – |
| Cc1cc(N2C[C@@H](COc3ccc(C#N)cc3)O[C@@H]2C(F)(F)F)ccc1[N+](=O)[O-] [Example 53, 4-(((2R,5S)-3-(3-methyl-4-nitrophenyl)-2-(trifluoromethyl)oxazolidin-5-yl)methoxy)benzonitrile] | – | 2.5 ± 0.7 |
| (2R,5S)-3-(3-chloro-4-cyanophenyl)-N-(4-cyano-2-fluorophenyl)-2-(trifluoromethyl)oxazolidine-5-carboxamide [Example 119] | – | 227 |
| CCOC(=O)Nc1ccc(OC[C@@H]2CN(c3ccc(C#N)c(C(F)(F)F)c3)[C@@H](C(F)(F)F)O2)cc1 [Example 41, ethyl(4-(((2R,5S)-3-(4-cyano-3-(trifluoromethyl)phenyl)-2-(trifluoromethyl)oxazolidin-5-yl)methoxy)phenyl)carbamate] | 16.2 | – |
| N#Cc1ccc(N2C[C@@H](C(=O)Nc3ccc(N)cc3)O[C@@H]2C(F)(F)F)cc1C(F)(F)F [Example 156, (2R,5S)-N-(4-aminophenyl)-3-(4-cyano-3-(trifluoromethyl)phenyl)-2-(trifluoromethyl)oxazolidine-5-carboxamide] | 323 | – |
| CC(=O)N1CCC(NC(=O)[C@@H]2CN(c3ccc(C#N)c(C(F)(F)F)c3)[C@@H](C(F)(F)F)O2)CC1 [Example 170, (2R,5S)-N-(1-acetylpiperidin-4-yl)-3-(4-cyano-3-(trifluoromethyl)phenyl)-2-(trifluoromethyl)oxazolidine-5-carboxamide] | 3560 | – |
| N#Cc1ccc(N2C[C@@H](COc3ccc(C(F)(F)F)cc3)O[C@@H]2C(F)(F)F)cc1C(F)(F)F [Example 37, 2-(trifluoromethyl)-4-((2R,5S)-2-(trifluoromethyl)-5-((4-(trifluoromethyl)phenoxy)methyl)oxazolidin-3-yl)benzonitrile] | 31.6 | – |
| N#Cc1ccc(N2C[C@@H](C(=O)Nc3ccc(O)cc3)O[C@@H]2C(F)(F)F)cc1C(F)(F)F [Example 148, (2R,5S)-3-(4-cyano-3-(trifluoromethyl)phenyl)-N-(4-hydroxyphenyl)-2-(trifluoromethyl)oxazolidine-5-carboxamide] | 13.5 | – |
| COC(=O)Nc1ccc(NC(=O)[C@@H]2CN(c3ccc(C#N)c(C(F)(F)F)c3)[C@@H](C(F)(F)F)O2)cc1 [Example 157, methyl(4-((2R,5S)-3-(4-cyano-3-(trifluoromethyl)phenyl)-2-(trifluoromethyl)oxazolidine-5-carboxamido)phenyl)carbamate] | 231 | – |
| CC(=O)Nc1ccc(OC[C@@H]2CN(c3ccc([N+](=O)[O-])c(C)c3)[C@@H](C(F)(F)F)O2)cc1 [Example 54, N-(4-(((2R,5S)-3-(3-methyl-4-nitrophenyl)-2-(trifluoromethyl)oxazolidin-5-yl)methoxy)phenyl)acetamide] | – | 0.86 |
| (2R,5S)-3-(3-chloro-4-nitrophenyl)-N-(4-cyano-2-fluorophenyl)-2-(trifluoromethyl)oxazolidine-5-carboxamide [Example 124] | – | 3.15 |
| N#Cc1ccc(N2C[C@@H](C(=O)N3CCC(N)CC3)O[C@@H]2C(F)(F)F)cc1C(F)(F)F [Example 175, 4-((2R,5S)-5-(4-aminopiperidine-1-carbonyl)-2-(trifluoromethyl)oxazolidin-3-yl)-2-(trifluoromethyl)benzonitrile hydrochloride] | 85.2 | – |
| (2R,5S)-N-(4-cyanophenyl)-3-(3-methyl-4-nitrophenyl)-2-(trifluoromethyl)oxazolidine-5-carboxamide [Example 111] | – | 4.46 |
| N#Cc1ccc(OC[C@@H]2CN(c3ccc(C#N)c(C(F)(F)F)c3)[C@H](C(F)(F)F)O2)cn1 [Example 45, 5-(((2S,5S)-3-(4-cyano-3-(trifluoromethyl)phenyl)-2-(trifluoromethyl)oxazolidin-5-yl)methoxy)picolinonitrile] | 44.1 | – |
| CN(C)C(=O)Nc1ccc(OC[C@@H]2CN(c3ccc(C#N)c(C(F)(F)F)c3)[C@@H](C(F)(F)F)O2)cc1 [Example 40, 3-(4-(((2R,5S)-3-(4-cyano-3-(trifluoromethyl)phenyl)-2-(trifluoromethyl)oxazolidin-5-yl)methoxy)phenyl)-1,1-dimethylurea] | 438 | – |
| N#Cc1ccc(N2C[C@@H](COc3ccc(CC(=O)O)cc3)O[C@@H]2C(F)(F)F)cc1C(F)(F)F [Example 52, 2-(4-(((2R,5S)-3-(4-cyano-3-(trifluoromethyl)phenyl)-2-(trifluoromethyl)oxazolidin-5-yl)methoxy)phenyl)acetic acid] | 759 | – |
| N#Cc1ccc(N2C[C@@H](COc3ccc(/C=N/O)cc3)O[C@@H]2C(F)(F)F)cc1Cl [Example 74, 2-chloro-4-((2R,5S)-5-((4-((E)-(hydroxyimino)methyl)phenoxy)methyl)-2-(trifluoromethyl)oxazolidin-3-yl)benzonitrile] | 0.658 | – |

| Compound | EC50 (EC50 [nM] (mean ± SE)) | EC50 [1] [nM] |
| --- | --- | --- |
| N#Cc1ccc(N2C[C@@H](C(=O)Nc3ccc(N)cc3F)O[C@@H]2C(F)(F)F)cc1C(F)(F)F [Example 105, (2R,5S)-N-(4-amino-2-fluorophenyl)-3-(4-cyano-3-(trifluoromethyl)phenyl)-2-(trifluoromethyl)oxazolidine-5-carboxamide] | 49.9 | – |
| N#Cc1ccc(N2C[C@@H](C(=O)Nc3ccnc(Cl)c3)O[C@@H]2C(F)(F)F)cc1C(F)(F)F [Example 142, (2R,5S)-N-(2-chloropyridin-4-yl)-3-(4-cyano-3-(trifluoromethyl)phenyl)-2-(trifluoromethyl)oxazolidine-5-carboxamide] | 0.79 | – |
| N#Cc1ccc(OC[C@@H]2CN(c3ccc(C#N)c(Cl)c3)[C@H](C(F)(F)F)O2)cc1 [Example 83, 2-chloro-4-((2S,5S)-5-((4-cyanophenoxy)methyl)-2-(trifluoromethyl)oxazolidin-3-yl)benzonitrile] | 29.6 | – |
| N#Cc1cccc(OC[C@@H]2CN(c3ccc(C#N)c(C(F)(F)F)c3)[C@@H](C(F)(F)F)O2)c1 [Example 46, 4-((2R,5S)-5-((3-cyanophenoxy)methyl)-2-(trifluoromethyl)oxazolidin-3-yl)-2-(trifluoromethyl)benzonitrile] | 31.5 | – |
| N#Cc1ccc(NC(=O)[C@@H]2CN(c3ccc(C#N)c(C(F)(F)F)c3)[C@@H](C(F)(F)F)O2)c(F)c1 [Example 139, (2R,5S)-N-(4-cyano-2-fluorophenyl)-3-(4-cyano-3-(trifluoromethyl)phenyl)-2-(trifluoromethyl)oxazolidine-5-carboxamide] | 2.74 | – |
| Cc1cc(N2C[C@@H](COc3ccc(C#N)cc3)O[C@H]2C(F)(F)F)ccc1[N+](=O)[O-] [Example 82, 4-(((2S,5S)-3-(3-methyl-4-nitrophenyl)-2-(trifluoromethyl)oxazolidin-5-yl)methoxy)benzonitrile] | – | 21.1 |
| N#Cc1ccc(N2C[C@@H](COc3ccc(N)cc3)O[C@@H]2C(F)(F)F)cc1C(F)(F)F [Example 14, 4-((2R,5S)-5-((4-aminophenoxy)methyl)-2-(trifluoromethyl)oxazolidin-3-yl)-2-(trifluoromethyl)benzonitrile] | 111 | – |
| CC(C)C(=O)Nc1ccc(NC(=O)[C@@H]2CN(c3ccc(C#N)c(C(F)(F)F)c3)[C@@H](C(F)(F)F)O2)cc1 [Example 159, (2R,5S)-3-(4-cyano-3-(trifluoromethyl)phenyl)-N-(4-isobutylamidophenyl)-2-(trifluoromethyl)oxazolidine-5-carboxamide] | 288 | – |
| N#Cc1cccc(NC(=O)[C@@H]2CN(c3ccc(C#N)c(C(F)(F)F)c3)[C@@H](C(F)(F)F)O2)c1 [Example 141, (2R,5S)-3-(4-cyano-3-(trifluoromethyl)phenyl)-N-(3-cyanophenyl)-2-(trifluoromethyl)oxazolidine-5-carboxamide] | 44.2 | – |
| (2R,5S)-N-(4-cyano-2-methylphenyl)-3-(4-cyano-3-(trifluoromethyl)phenyl)-2-(trifluoromethyl)oxazolidine-5-carboxamide [Example 133] | – | 44 |
| (2R,5S)-N-(2-chloropyridin-4-yl)-3-(3-methyl-4-nitrophenyl)-2-(trifluoromethyl)oxazolidine-5-carboxamide [Example 137] | – | 1.77 |
| (2R,5S)-3-(4-cyano-3-(trifluoromethyl)phenyl)-N-(4-cyano-3-methoxyphenyl)-2-(trifluoromethyl)oxazolidine-5-carboxamide [Example 127] | – | 183 |
| (2R,5S)-N-(6-cyanopyridin-3-yl)-3-(3-methyl-4-nitrophenyl)-2-(trifluoromethyl)oxazolidine-5-carboxamide [Example 116] | – | 4.32 |
| N#Cc1ccc(OC[C@@H]2CN(c3ccc([N+](=O)[O-])c(C(F)(F)F)c3)[C@@H](C(F)(F)F)O2)cn1 [Example 65, 5-(((2R,5S)-3-(4-nitro-3-(trifluoromethyl)phenyl)-2-(trifluoromethyl)oxazolidin-5-yl)methoxy)picolinonitrile] | – | 59.5 |
| (2R,5S)-N-(2-chloro-4-cyanophenyl)-3-(4-cyano-3-(trifluoromethyl)phenyl)-2-(trifluoromethyl)oxazolidine-5-carboxamide [Example 114] | – | 201 |
| N#Cc1ccc(N2C[C@@H](C(=O)Nc3ccc(F)c(F)c3)O[C@@H]2C(F)(F)F)cc1C(F)(F)F [Example 140, (2R,5S)-3-(4-cyano-3-(trifluoromethyl)phenyl)-N-(3,4-difluorophenyl)-2-(trifluoromethyl)oxazolidine-5-carboxamide] | 14.7 | – |
